Laboratory results as given in article PMC12030627, “Radioiodinated Bicyclic RGD Peptide Derivatives for Enhanced Tumor Accumulation” (Pharmaceuticals, 2025).
Like-named read-outs stand apart in the source and are kept apart here. Starred links: 1 amine or outer side, 2 acyl side, 3 side chain; linkers in the order of their positions; H or OH if unused. Positions of bridges follow the written chain, without caps; N, C: chain ends. Non-standard residues stand in square brackets, D forms with d. Residues, ends and D or L forms follow the SMILES beside them. *: point of attachment. Butanoyl(4-(4-I-phenyl)) = O=C(CCCc1ccc(I)cc1)*; TBMB = c1c(C[*:1])cc(C[*:3])cc1C[*:2]; Benzoyl(3-I) = O=C(c1cccc(I)c1)*; 4Abz = Nc1ccc(C(=O)O)cc1

Assay: Biodistribution in U-87 MG tumor-bearing mice
Format: in vivo, BALB/c nu-nu mice
Conditions: male, BALB/c nu-nu, mouse, iv, 37 kBq, total radioactivity; for tissue uptake at 5 min: 5 min after i.v. administration; for tissue uptake at 5 min / tissue uptake at 0.5 h / tissue uptake at 1 h / tissue uptake at 2 h / tissue uptake at 6 h / tissue uptake at 12 h / tissue uptake at 24 h: U-87 MG-bearing mice, mean ± SD, n = 3; for tissue uptake at 0.5 h: 30 min after i.v. administration; for tissue uptake at 1 h: 1 h after i.v. administration; for tissue uptake at 2 h: 2 h after i.v. administration; for tissue uptake at 6 h: 6 h after i.v. administration; for tissue uptake at 12 h: 12 h after i.v. administration; for tissue uptake at 24 h: 24 h after i.v. administration
Description: Animal experiments were performed in compliance with institutional animal care regulations, with the study protocol approved by the Experimental Animal Committee of Osaka Medical and Pharmaceutical University (Approval Numbers: 21–76, 22–76, and 23–76). Four-week-old male BALB/c nu-nu mice (Japan SLC, Shizuoka, Japan) were housed under a 12 h light/12 h dark cycle with free access to food and water. Tumor-bearing mice were established by suspending U-87 MG cells (2 × 10^6 cells/mouse) in PBS(–) and subcutaneously injecting 100 μL of the suspension into the right hind leg. For co-implantation models, A549 cells (2 × 10^6 cells/mouse) were suspended in PBS(–) and inoculated (100 μL) into the left hind leg of the same mice already inoculated with U-87 MG cells. Mice with tumor size approximately 10 mm in diameter, 4–5 weeks after inoculation, were used for biodistribution studies. Animals in which either tumor was not viable were excluded from the experiment.
U-87 MG-bearing mice (n = 42, 8–9 weeks old; 22–27 g) were randomly assigned into groups and administered [^125I]bcRGDpal or [^125I]bcRGDiba via intravenous injection (37 kBq in 100 μL of PBS containing 0.1% Tween 80 (PBS-T80)). At 5 min, 30 min, 1 h, 2 h, 6 h, 12 h, or 24 h post-injection, the mice were euthanized (n = 3 per time point). The heart, kidneys, liver, brain, pancreas, spleen, lung, small intestine, large intestine, muscle, skin, stomach, bone, and tumors were excised. Each organ’s weight and radioactivity were measured by a NaI well-type scintillation counter, and the % ID/g was calculated. To investigate the correlation between integrin expression and radioactivity accumulation, biodistribution at 2 h after administration of [^125I]bcRGDpal or [^125I]bcRGDiba was assessed in A549 and U-87 MG co-implantation mice (n = 5) using the same procedure. Additionally, co-implantation mice were injected with [^125I]bcRGDdimer (37 kBq/100 μL PBS-T80) and euthanized at 30 min, 2 h, and 4 h post-injection (n = 4 per time point), and % ID/g values were calculated as described above. The minimum sample size needed for the biodistribution study in U-87 MG-bearing mice was calculated using G Power software version 3.1.9.7. The calculation was based on a two-tailed test, with an effect size of 3.9, a significance level (α) of 0.05, and a statistical power (1 − β) of 0.8. […] The minimum required sample size for the biodistribution study in A549 and U-87 MG co-implantation mice was also calculated to be four animals per group (effect size = 2.5, α = 0.05, 1 − β = 0.8). To guarantee objective results, the experiment was carried out in a blinded manner. Specifically, drug administration and radioactivity measurements were conducted by different investigators to eliminate potential bias.

[1] = U-87 MG tumor, read-out: Radioactivity in U-87 MG tumor
[2] = blood, read-out: Radioactivity in blood
[3] = bone, read-out: Radioactivity in bone
[4] = brain, read-out: Radioactivity in brain
[5] = heart, read-out: Radioactivity in heart
[6] = kidneys, read-out: Radioactivity in kidneys
[7] = large intestine, read-out: Radioactivity in large intestine
[8] = liver, read-out: Radioactivity in liver

Structure (SMILES): N=C(N)NCCC[C@@H]1NC(=O)[C@H]2CSCc3cc(cc(c3)CSC[C@H](C(N)=O)NC(=O)[C@H](CC(=O)O)NC(=O)CNC1=O)CSC[C@H](NC(=O)CNC(=O)[C@H](CO)NC(=O)c1ccc(NC(=O)CNC(=O)[C@H](CO)NC(=O)[C@@H]3CCCN3C(=O)[C@@H]3CCCN3C(=O)[C@@H]3CCCN3C(=O)[C@H](CCCCNC(=O)c3cccc(I)c3)NC(=O)CCCc3ccc(I)cc3)cc1)C(=O)N[C@@H](Cc1c[nH]cn1)C(=O)N1CCC[C@H]1C(=O)N[C@@H](CCC(N)=O)C(=O)N2 [[^125I]bcRGDiba] ({Butanoyl(4-(4-I-phenyl))}-K(Benzoyl(3-I))PPPSG[4Abz]SGCHPQ[dC]RGD[dC]-NH2; linker 10-14-18 via TBMB)
- tissue uptake at 5 min [1]: 2.2 ± 0.5 %ID/g
- tissue uptake at 0.5 h [1]: 3.4 ± 0.5 %ID/g
- tissue uptake at 1 h [1]: 3.6 ± 0.8 %ID/g
- tissue uptake at 2 h [1]: 3.6 ± 0.7 %ID/g
- tissue uptake at 6 h [1]: 2.9 ± 0.4 %ID/g
- tissue uptake at 12 h [1]: 1.4 ± 0.3 %ID/g
- tissue uptake at 24 h [1]: 0.5 ± 0.1 %ID/g
- tissue to tissue ratio (U-87 MG tumor/blood, all time points (5 min to 24 h)): < 1
- tissue uptake at 5 min [2]: 23.3 ± 2.9 %ID/g
- tissue uptake at 0.5 h [2]: 18.5 ± 1 %ID/g
- tissue uptake at 1 h [2]: 15.4 ± 1.2 %ID/g
- tissue uptake at 2 h [2]: 14 ± 1.5 %ID/g
- tissue uptake at 6 h [2]: 8.5 ± 1 %ID/g
- tissue uptake at 12 h [2]: 3.9 ± 0.7 %ID/g
- tissue uptake at 24 h [2]: 1.4 ± 0.1 %ID/g
- tissue uptake at 5 min [3]: 1.7 ± 0.3 %ID/g
- tissue uptake at 0.5 h [3]: 1.9 ± 0.6 %ID/g
- tissue uptake at 1 h [3]: 1.6 ± 0.4 %ID/g
- tissue uptake at 2 h [3]: 1.5 ± 0.3 %ID/g
- tissue uptake at 6 h [3]: 1.3 ± 0.1 %ID/g
- tissue uptake at 12 h [3]: 0.6 ± 0.2 %ID/g
- tissue uptake at 24 h [3]: 0.3 ± 0.1 %ID/g
- tissue uptake at 5 min [4]: 0.6 ± 0.2 %ID/g
- tissue uptake at 0.5 h [4]: 0.4 ± 0.1 %ID/g
- tissue uptake at 1 h [4]: 0.4 %ID/g
- tissue uptake at 2 h [4]: 0.3 %ID/g
- tissue uptake at 6 h [4]: 0.2 %ID/g
- tissue uptake at 12 h [4]: 0.1 %ID/g
- tissue uptake at 5 min [5]: 7.4 ± 1.4 %ID/g
- tissue uptake at 0.5 h [5]: 5.3 ± 0.5 %ID/g
- tissue uptake at 1 h [5]: 4.5 ± 0.8 %ID/g
- tissue uptake at 2 h [5]: 4.2 ± 0.1 %ID/g
- tissue uptake at 6 h [5]: 2.7 ± 0.2 %ID/g
- tissue uptake at 12 h [5]: 1.3 ± 0.1 %ID/g
- tissue uptake at 24 h [5]: 0.5 %ID/g
- tissue uptake at 5 min [6]: 7.8 ± 0.5 %ID/g
- tissue uptake at 0.5 h [6]: 7.1 ± 1.4 %ID/g
- tissue uptake at 1 h [6]: 7.3 ± 0.4 %ID/g
- tissue uptake at 2 h [6]: 5.5 ± 0.3 %ID/g
- tissue uptake at 6 h [6]: 3.9 ± 0.4 %ID/g
- tissue uptake at 12 h [6]: 1.8 ± 0.1 %ID/g
- tissue uptake at 24 h [6]: 0.8 ± 0.1 %ID/g
- tissue uptake at 5 min [7]: 1.5 ± 0.7 %ID/g
- tissue uptake at 0.5 h [7]: 1 ± 0.1 %ID/g
- tissue uptake at 1 h [7]: 1 ± 0.1 %ID/g
- tissue uptake at 2 h [7]: 7.1 ± 2 %ID/g
- tissue uptake at 6 h [7]: 11.3 ± 2 %ID/g
- tissue uptake at 12 h [7]: 3.4 ± 1 %ID/g
- tissue uptake at 24 h [7]: 2.2 ± 0.2 %ID/g
- tissue uptake at 5 min [8]: 7.6 ± 0.5 %ID/g
- tissue uptake at 0.5 h [8]: 6.9 ± 0.2 %ID/g
